Test results taken from paper PMC7731310, “Pogostemon cablin Triggered ROS-Induced DNA Damage to Arrest Cell Cycle Progression and Induce Apoptosis on Human Hepatocellular Carcinoma In Vitro and In Vivo” (Molecules, 2020).
Values after ≈ are worked out from the molar mass of the structure shown.

How the values were obtained:
SVEC = experiment: MTT cell viability, SVEC normal cells; type: cell-based; conditions: Mus musculus, 48 hr, mean ± SD
Protocol: (§1) HCC cells (5 × 10^3/100 μL), SVEC, MDCK (1 × 10^4/100 μL), and BNL CL.2 cells (4 × 10^4/100 μL) were seeded in a 96-well plate. After incubating overnight at 37 ℃, the cells were treated with serially diluted drug concentrations for 24, 48, and 72 h. The cell viability was measured using an MTT assay.

Mahlavu = experiment: MTT cell viability, Mahlavu; type: cell-based, Human; conditions: for IC50: Homo sapiens, Mahlavu, 48 hr, mean ± SD; for Selectivity index (SI) BNL CL.2/Mahlavu / Selectivity index (SI) MDCK/Mahlavu / Selectivity index (SI) SVEC/Mahlavu: IC50 of normal cells/IC50 of HCC cells
Protocol: as §1

J5 = experiment: MTT cell viability, J5; type: cell-based, Human; conditions: for IC50: Homo sapiens, J5, 48 hr, mean ± SD; for Selectivity index (SI) BNL CL.2/J5 / Selectivity index (SI) MDCK/J5 / Selectivity index (SI) SVEC/J5: IC50 of normal cells/IC50 of HCC cells
Protocol: as §1

HepG2 = experiment: MTT cell viability, HepG2; type: cell-based, Human; conditions: for IC50: Homo sapiens, HepG2, 48 hr, mean ± SD; for Selectivity index (SI) BNL CL.2/HepG2 / Selectivity index (SI) MDCK/HepG2 / Selectivity index (SI) SVEC/HepG: IC50 of normal cells/IC50 of HCC cells
Protocol: as §1

MDCK = experiment: MTT cell viability, MDCK normal cells; type: cell-based, Canine; conditions: Canis lupus familiaris, 48 hr, mean ± SD
Protocol: as §1

Huh7 = experiment: MTT cell viability, Huh7; type: cell-based, Human; conditions: for IC50: Homo sapiens, Huh-7, Huh7, 48 hr, mean ± SD; for Selectivity index (SI) BNL CL.2/Huh7 / Selectivity index (SI) MDCK/Huh7 / Selectivity index (SI) SVEC/Huh7: IC50 of normal cells/IC50 of HCC cells
Protocol: as §1

BNL CL.2 = experiment: MTT cell viability, BNL CL.2 normal liver cells; type: cell-based; conditions: Mus musculus, 48 hr, mean ± SD
Protocol: as §1

Mahlavu cells = experiment: Regrowth assay (crystal violet), Mahlavu; conditions: PPa extract 15 μg/mL, sorafenib 0.2 μg/mL, 4 and 8 days
Protocol: (§2) After that, both cell lines were analyzed for flow cytometry. […] During treatments, fresh drugs were changed every two days and harvested the data at 4 and 8 days. After treatment, cells were stained with 0.1% crystal violet and absorbance was measured at 550 nm after dissolving in 0.5% acetic acid. For detection of indicated protein expressions, cells (2 × 10^6) seeded at 10 cm dishes. […] Cell lysates were collected for western blot.

HepG2 cells = experiment: Regrowth assay (crystal violet), HepG2; conditions: PPa extract 15 μg/mL, sorafenib 0.2 μg/mL, 4 and 8 days
Protocol: as §2

Row | IC50 (HepG2) [µg/mL] | IC50 (Huh7) [µg/mL] | SMILES | IC50 (SVEC) [µg/mL] | IC50 (Mahlavu) [µg/mL] | IC50 (J5) [µg/mL] | IC50 (MDCK) [µg/mL] | IC50 (BNL CL.2) [µg/mL] | Selectivity index (SI) BNL CL.2/Mahlavu (Mahlavu) | Selectivity index (SI) MDCK/Mahlavu (Mahlavu) | Selectivity index (SI) SVEC/Mahlavu (Mahlavu) | Selectivity index (SI) BNL CL.2/J5 (J5) | Selectivity index (SI) MDCK/J5 (J5) | Selectivity index (SI) SVEC/J5 (J5) | Selectivity index (SI) BNL CL.2/HepG2 (HepG2) | Selectivity index (SI) MDCK/HepG2 (HepG2) | Selectivity index (SI) SVEC/HepG (HepG2) | Selectivity index (SI) BNL CL.2/Huh7 (Huh7) | Selectivity index (SI) MDCK/Huh7 (Huh7) | Selectivity index (SI) SVEC/Huh7 (Huh7) | other results
1 | 2.09 ± 1.63 (≈ 16.1 µM) | 4.88 ± 3.37 (≈ 37.5 µM) | O=c1[nH]cc(F)c(=O)[nH]1 [5-FU, 5-Fluorouracil] | 1.69 ± 2.8 (≈ 13 µM) | 15 ± 3.71 (≈ 115 µM) | 18.8 ± 0.91 (≈ 144 µM) | 8.74 ± 0.53 (≈ 67.2 µM) | > 20 |  |  |  |  |  |  |  |  |  |  |  |  | 
2 | 4.73 ± 3.57 (≈ 8.04 µM) | 5.11 ± 2.08 (≈ 8.68 µM) | COc1cc([C@@H]2c3cc4c(cc3[C@@H](O[C@@H]3O[C@@H]5CO[C@@H](C)O[C@H]5[C@H](O)[C@H]3O)[C@H]3COC(=O)[C@H]23)OCO4)cc(OC)c1O [VP-16, Etoposide] | 1.85 ± 0.49 (≈ 3.14 µM) | 4.54 ± 2.17 (≈ 7.71 µM) | 3.01 ± 2.75 (≈ 5.11 µM) | 3.38 ± 0.43 (≈ 5.74 µM) | 6.43 ± 3.02 (≈ 10.9 µM) | 1.4 | 0.8 | 0.4 | 2.1 | 1.1 | 0.6 | 1.4 | 0.7 | 0.4 | 1.3 | 0.7 | 0.4 | 

Row | SMILES | IC50 (HepG2) [µg/mL] | IC50 (Huh7) [µg/mL] | IC50 (SVEC) [µg/mL] | IC50 (Mahlavu) [µg/mL] | IC50 (J5) [µg/mL] | IC50 (MDCK) [µg/mL] | IC50 (BNL CL.2) [µg/mL] | Selectivity index (SI) BNL CL.2/Mahlavu (Mahlavu) | Selectivity index (SI) MDCK/Mahlavu (Mahlavu) | Selectivity index (SI) SVEC/Mahlavu (Mahlavu) | Selectivity index (SI) BNL CL.2/J5 (J5) | Selectivity index (SI) MDCK/J5 (J5) | Selectivity index (SI) SVEC/J5 (J5) | Selectivity index (SI) BNL CL.2/HepG2 (HepG2) | Selectivity index (SI) MDCK/HepG2 (HepG2) | Selectivity index (SI) SVEC/HepG (HepG2) | Selectivity index (SI) BNL CL.2/Huh7 (Huh7) | Selectivity index (SI) MDCK/Huh7 (Huh7) | Selectivity index (SI) SVEC/Huh7 (Huh7) | other results
3 | CNC(=O)c1cc(Oc2ccc(NC(=O)Nc3ccc(Cl)c(C(F)(F)F)c3)cc2)ccn1 [SOR, sorafenib] | 3.52 ± 1.97 (≈ 7.57 µM) | 1.77 ± 4.31 (≈ 3.81 µM) | 8.55 ± 2.73 (≈ 18.4 µM) | 6.07 ± 1.06 (≈ 13.1 µM) | 2.39 ± 1.91 (≈ 5.14 µM) | 6.95 ± 1.45 (≈ 15 µM) | 10.8 ± 5.17 (≈ 23.1 µM) | 1.8 | 1.1 | 1.4 | 4.5 | 2.9 | 3.6 | 3.1 | 2.0 | 2.4 | 6.1 | 3.9 | 4.8 | inhibition of cell regrowth (Mahlavu cells): no inhibitory effect; inhibition of cell regrowth (HepG2 cells): no inhibitory effect
